Measured values: patent US11111222B2, “Hydroxyeicosatrienoic acid compounds and their use as therapeutic agents” (THE REGENTS OF THE UNIVERSITY OF MICHIGAN, priority 2016, dated 2021)
“Also recorded” adds a separate entry of the source.

How the values were obtained:
[1] = system: washed platelets from WT or 12-LOX−/− mice; assay: Platelet aggregation, washed murine platelets (lumi-aggregometer); type: cell-based, mouse; conditions: 25 μM 12-LOX oxylipin, 10 min, vs vehicle
Procedure: The 12-LOX null C57BL/6 (12-LOX^−/−) mice were generated using homozygous breeding pairs and wild-type (WT) C57BL/6 ([…]) mice were purchased (Jackson Laboratory). […] Mouse blood was diluted with equal volumes of Tyrode's buffer (10 mM HEPES, 11.9 mM sodium bicarbonate, 127.2 mM sodium chloride, 5 mM potassium chloride, 0.4 mM sodium phosphate monobasic, 1 mM magnesium chloride, and 5 mM D-glucose) and centrifuged at 200×g. Platelet-rich-plasma (PRP) was transferred to a tube containing 10× acid citrate dextrose solution (ACD) (2.5% sodium citrate, 1.5% citric acid, and 2% D-glucose) and apyrase (0.02 U/mL), and centrifuged at 2000×g. Platelet count was adjusted to 3×10^8 platelets/mL with Tyrode's buffer for all studies.
A lumi-aggregometer (Chrono-log model 700D) was used to measure platelet aggregation under stirring conditions (1100 rpm) at 37° C. Prior to agonist stimulation platelets were incubated with a preselected PUFA or oxylipin for 10 minutes.

[2] = system: Rap1; assay: Rap1 activation in washed platelets (Rap1-GTP pull-down, Western blot); type: cell-based, mouse; conditions: 25 μM 12-HETrE, PAR4-AP stimulated, vs vehicle
Procedure: Following 1 minute of stimulation platelets were lysed with 2× platelet lysis buffer (100 mM Tris HCl, pH 7.4, 150 mM NaCl, 2% IGEPAL, 1% sodium deoxycholate, and 0.05% SDS) containing protease and phosphatase inhibitors. The cytoskeleton was pelleted by centrifugation at 14000×g for 7 minutes at 4° C. Active Rap1 was selectively captured from the supernatant by incubating GST-tagged Rap1 binding domain of RalGDS conjugated to glutathione sepharose beads for one hour on a nutator at 4° C. The beads were then washed 5 times with IP buffer and resuspended in 2× Laemmeli reducing buffer (62.5 mM Tris-HCl, pH 6.8, 2% SDS, 25% glycerol, 0.01% bromophenol blue, 5% β-mercaptoethanol). The samples were boiled for 10 minutes and then loaded onto a 10% SDS-polyacrylamide gel electrophoresis (PAGE) gel. Western blots were performed using a Rap1 antibody and quantified with a LI-COR imager.

[3] = system: thrombus formation (platelet and fibrin) in cremaster arterioles; assay: Laser-induced cremaster arteriole thrombosis model; type: in vivo, mouse
Procedure: Wild type (WT) or 12-LOX^−/− mice (12 weeks of age) were anesthetized by intraperitoneal injection of ketamine/xylazine (100 mg/kg) prior to the exposure of the cremaster muscle arterioles under a dissecting microscope with constant perfusion of preheated bicarbonate-buffered saline (Reheman et al., J Thromb Haemost 3:875-883, 2005; Reheman et al., Blood 113:1809-1817, 2009; Wang et al., J Clin Invest 124:4281-4293, 2014). Anti-platelet (DyLight 488 anti-GPIb, 1 μg/g) and anti-fibrin (Alexa Fluor 647, 0.3 μg/g) antibodies were administered via jugular vein catheter prior to intravital microscopy. DGLA (50 mg/kg) or DMSO (vehicle control) were dissolved in a formulation of 5% DMSO and 45% PEG300 in sterile 1×PBS and then intravenously injected into mice 10 minutes prior to induction of thrombosis. 12(S)-HETrE (6 mg/kg) or equal volume of DMSO (vehicle control) was also intravenously injected into mice 10 minutes prior to induction of thrombosis. Multiple independent thrombi were induced in the arterioles (30-50 μm diameter) in each mouse by a laser ablation system (Ablate! photoablation system; Intelligent Imaging Innovations, Denver, Colo., USA). Images of thrombus formation were acquired in real-time under 63× water-immersion objective with a Zeiss Axio Examiner Z1 fluorescent microscope equipped with solid laser launch system (LaserStack; Intelligent Imaging Innovations) and high-speed sCMOS camera. All captured images were analyzed on Slidebook (Intelligent Imaging Innovations Inc., Denver, Colo., USA).

[4] = system: VASP (serine 157); assay: VASP phosphorylation in human platelets; type: cell-based; conditions: 25 μM, 1 min; vs DMSO
Procedure: Washed platelets were treated with PUFA or PUFA metabolite (12(S)-HETrE or compound IIc) for one minute, then directly lysed in 5× Laemmeli sample buffer (1.5 M Tris-HCl, pH 6.8, glycerol, 5% β-mercaptoethanol, 10% sodium dodecyl sulfate (SDS), and 1% bromophenol blue). The samples were boiled for five minutes and then run on a 10% SDS-PAGE gel. The levels of total and phospho-VASP (serine 157) were quantified by Western Blot using an Odyssey imaging system (LI-CoR).

[5] = system: platelets of mice expressing the human FcγRIIa receptor; assay: Animal model of ITP (anti-GPIX in mice expressing human FcγRIIa); type: in vivo, mouse; conditions: 6 mg/kg i.v. 10 min before GPIX antibody
Procedure: Mice expressing the human immune-receptor FcγRIIa were injected IV with GPIX, an antibody known to induce acute ITP (Stolla et al., Blood 118(4): 1113-1120, 2011) as previously described (Yeung et al., Blood 124(4): 2271-2279, 2014). […] To determine if 12(S)-HETrE compounds would be viable therapeutics to prevent ITP in this model, 6 mg/kg 12(S)-HETrE was injected IV 10 minutes prior to GPIX antibody injection, and platelet count was measured at several time points prior to and following antibody injection. Additionally, immunofluorescent-labelled platelets that had been injected prior to the onset of ITP were measured in excised lungs 4 hours following GPIX administration.

[6] = WT mice, 6 mg/kg i.v. 10 min before laser injury, vs vehicle

`CCCCC/C=C\C[C@H](O)/C=C/C=C\CCCCCCC(=O)O` [12(S)-HETrE, 12(S)-hydroxy-8Z,10E,14Z-eicosatrienoic acid] was tested, and the platelet aggregation ([1]; 12-LOX−/− mouse platelets, EC80 PAR4-AP (200 μM) or collagen (2 or 5 μg/mL)) was “inhibited the aggregation”, the platelet aggregation ([1]; WT mouse platelets, EC80 PAR4-AP (100 μM) or collagen (5 μg/mL)) was “inhibited the aggregation” and the “Rap1 activation (Rap1-GTP)” value ([2]; 12-LOX−/− mouse platelets) was “suppressed Rap1 activation”. For the same compound, the “Rap1 activation (Rap1-GTP)” value ([2]; WT mouse platelets) was “suppressed Rap1 activation”, the platelet accumulation ([3]; 12-LOX−/− mice, 6 mg/kg i.v., vs 12-LOX−/− alone) was “significant inhibition of platelet accumulation” and the fibrin accumulation ([3]; 12-LOX−/− mice, 6 mg/kg i.v., vs vehicle) was “no difference in fibrin accumulation”. The “thrombus size and stability by fibrin accumulation” value [3, 6] was “significantly smaller and less stable thrombi”, the “thrombus size and stability by platelet accumulation” value [3, 6] was “significantly smaller and less stable thrombi” and the “VASP phosphorylation (S157)” value [4] was “enhanced VASP phosphorylation”. For the same compound, the “reduction of thrombi in the lungs” value ([5]; excised lungs) was “more than 40%”, the “accumulation of fluorescently labeled platelets in the lungs” value ([5]; lungs excised 4 hours after GPIX, vs vehicle) was “prevented accumulation of fluorescently labeled platelets in the lungs” and the “platelet count (thrombocytopenia)” value ([5]; vs vehicle) was “no signs of thrombocytopenia; also recorded: prevented thrombocytopenia”.
